Measurements published in patent US20150105252A1, “SUBSTITUTED PYRAZOLES AS HERBICIDES” (E I DU PONT DE NEMOURS AND COMPANY, priority 2013, published 2015).

Key:
barnyardgrass [1] = assay: Test A preemergence; format: in vivo, Echinochloa crus-galli; conditions: preemergence; for Barnyardgrass plant response rating (0 to 100 scale, 0 is no effect, 100 is complete control): 125 g ai/ha, visual injury approx. 10 days after treatment; for Barnyardgrass plant response rating: 500 g ai/ha, visual injury after approx. 10 days, 0 to 100 scale (0 no effect, 100 complete control)
Summary of the method: (§1)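 Greenhouse test in loam soil/sand blend; compounds formulated in non-phytotoxic solvent with surfactant, applied as preemergence directed soil spray or postemergence to plants 2–10 cm tall at one- to two-leaf stage. Injury rated visually versus untreated controls after approximately 10 days on a 0 (no effect) to 100 (complete control) scale.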

foxtail, giant [2] = assay: Test A preemergence; format: in vivo, Setaria faberii; conditions: preemergence; for Foxtail, Giant plant response rating (0 to 100 scale): 125 g ai/ha, visual injury approx. 10 days after treatment; for Foxtail, Giant plant response rating: 500 g ai/ha, visual injury after approx. 10 days, 0 to 100 scale (0 no effect, 100 complete control)
Summary of the method: as §1

velvetleaf [3] = assay: Test A preemergence; format: in vivo, Abutilon theophrasti; conditions: preemergence; for Velvetleaf plant response rating (0 to 100 scale): 125 g ai/ha, visual injury approx. 10 days after treatment; for Velvetleaf plant response rating: 500 g ai/ha, visual injury after approx. 10 days, 0 to 100 scale (0 no effect, 100 complete control)
Summary of the method: as §1

wheat = assay: Test A preemergence; format: in vivo, Triticum aestivum; conditions: preemergence; for Wheat plant response rating (0 to 100 scale): 125 g ai/ha, visual injury approx. 10 days after treatment; for Wheat plant response rating: 500 g ai/ha, visual injury after approx. 10 days, 0 to 100 scale (0 no effect, 100 complete control)
Summary of the method: as §1

corn = assay: Test A preemergence; format: in vivo, Zea mays; conditions: preemergence; for Corn plant response rating (0 to 100 scale): 125 g ai/ha, visual injury approx. 10 days after treatment; for Corn plant response rating: 500 g ai/ha, visual injury after approx. 10 days, 0 to 100 scale (0 no effect, 100 complete control)
Summary of the method: as §1

barnyardgrass [4] = assay: Test A postemergence; format: in vivo, Echinochloa crus-galli
Summary of the method: as §1

foxtail, giant [5] = assay: Test A postemergence; format: in vivo, Setaria faberii
Summary of the method: as §1

velvetleaf [6] = assay: Test A postemergence; format: in vivo, Abutilon theophrasti; conditions: Postemergence
Summary of the method: as §1

sedge, umbrella = assay: Test B flood; format: in vivo, Cyperus difformis; conditions: 250 g ai/ha, visual rating on 0 to 100 scale (0 no effect, 100 complete control), 13 to 15 days
Summary of the method: (§2)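 Two-leaf-stage plants, pots flooded (3 cm above soil) and treated through the water, which stayed at that depth. After 13–15 days in greenhouse conditions, visual assessment versus controls: 0 is no effect, 100 complete control, dash means no result.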

barnyardgrass [7] = assay: Test B flood; format: in vivo, Echinochloa crus-galli; conditions: 250 g ai/ha, visual rating on 0 to 100 scale (0 no effect, 100 complete control), 13 to 15 days
Summary of the method: as §2

crabgrass, large = assay: Test C preemergence; format: in vivo, Digitaria sanguinalis
Summary of the method: (§3)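 In this greenhouse assay, seeded soil (loam plus sand) or emerged seedlings in peat-vermiculite medium were treated with formulated compound. Roughly two weeks later (13–15 days), each species was scored visually relative to controls, from 0 for no effect to 100 for complete control.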

morningglory = assay: Test C preemergence; format: in vivo, Ipomoea coccinea
Summary of the method: as §3

nutsedge, yellow = assay: Test C preemergence; format: in vivo, Cyperus esculentus
Summary of the method: as §3

pigweed = assay: Test C preemergence; format: in vivo, Amaranthus retroflexus
Summary of the method: as §3

[8] = Postemergence, 500 g ai/ha, 0 to 100 scale (0 no effect, 100 complete control)
[9] = postemergence, 125 g ai/ha, about 10 days, visual rating on 0 to 100 scale (0 no effect, 100 complete control)
[10] = 125 g ai/ha, 0 to 100 scale, 0 no effect, 100 complete control
[11] = 500 g ai/ha, 0 to 100 scale (0 no effect, 100 complete control)
[12] = preemergence, 31 g ai/ha, visual rating, scale 0 to 100 (0 no effect, 100 complete control), 13 to 15 days
[13] = preemergence, 62 g ai/ha, scale 0 to 100 (0 no effect, 100 complete control), 13 to 15 days
[14] = preemergence, 125 g ai/ha, 13 to 15 days, scale 0 to 100, 0 = no effect, 100 = complete control
[15] = preemergence, 250 g ai/ha, scale 0 to 100, 0 is no effect, 100 is complete control
[16] = Postemergence, 125 g ai/ha, 0 to 100 scale, 0 no effect, 100 complete control
[17] = Preemergence, rate head not shown (block before 16 g ai/ha), scale 0 to 100

SMILES | Barnyardgrass plant response rating (0 to 100 scale, 0 is no effect, 100 is complete control) (barnyardgrass [1]) | Barnyardgrass plant response rating (barnyardgrass [1]) | Foxtail, Giant plant response rating (0 to 100 scale) (foxtail, giant [2]) | Foxtail, Giant plant response rating (foxtail, giant [2]) | Velvetleaf plant response rating (0 to 100 scale) (velvetleaf [3]) | Wheat plant response rating (0 to 100 scale) (wheat) | Corn plant response rating (0 to 100 scale) (corn) | Corn plant response rating (corn) | Barnyardgrass plant response rating (barnyardgrass [4]; [8]) | Foxtail, Giant plant response rating (foxtail, giant [5]; [8]) | Velvetleaf plant response rating (velvetleaf [6]; [10]) | Velvetleaf plant response rating (velvetleaf [6]; [11]) | Plant response rating, Sedge, Umbrella (sedge, umbrella) | Plant response rating, Barnyardgrass (barnyardgrass [7]) | Crabgrass, Large plant response rating (crabgrass, large; [13]) | Plant response rating, Crabgrass, Large (crabgrass, large; [14]) | Crabgrass, Large plant response rating (crabgrass, large; [15]) | Morningglory plant response rating (morningglory; [13]) | Plant response rating, Morningglory (morningglory; [14]) | Morningglory plant response rating (morningglory; [15]) | also measured
CCc1cc(C(=O)NCC2CC2)nn1Cc1ccnc(C(F)(F)F)c1 [Compound 199] | 100 | 100 | 100 | 100 | 100 | 90 | 70 | 90 | 90 | 90 | 80 | 90 | 90 | 55 | 100 | 100 | 100 | 100 | 98 | 100 | Velvetleaf plant response rating (velvetleaf [3]): 100; Wheat plant response rating (wheat): 100; Barnyardgrass plant response rating (barnyardgrass [4]; [9]): 70; Foxtail, Giant plant response rating (foxtail, giant [5]; [9]): 90; Crabgrass, Large plant response rating (crabgrass, large; [12]): 98; Morningglory plant response rating (morningglory; [12]): 60; Nutsedge, Yellow plant response rating (nutsedge, yellow; [12]): 30; Nutsedge, Yellow plant response rating (nutsedge, yellow; [13]): 45; Plant response rating, Nutsedge, Yellow (nutsedge, yellow; [14]): 80; Nutsedge, Yellow plant response rating (nutsedge, yellow; [15]): 85; Pigweed plant response rating (pigweed; [12]): 100; Pigweed plant response rating (pigweed; [13]): 100; Plant response rating, Pigweed (pigweed; [14]): 100; Pigweed plant response rating (pigweed; [15]): 100
CCc1cc(C(=O)NC2CC2)nn1Cc1ccnc(OCC(F)(F)F)c1 [Compound 200] | 90 | 100 | 100 | 100 | 20 | 0 | 60 | 90 | 100 | 100 | 80 | 90 | 90 | 25 | 100 | 100 | 100 | 95 | 98 | 100 | Velvetleaf plant response rating (velvetleaf [3]): 100; Wheat plant response rating (wheat): 100; Barnyardgrass plant response rating (barnyardgrass [4]; [9]): 90; Foxtail, Giant plant response rating (foxtail, giant [5]; [9]): 100; Crabgrass, Large plant response rating (crabgrass, large; [12]): 100; Morningglory plant response rating (morningglory; [12]): 55; Nutsedge, Yellow plant response rating (nutsedge, yellow; [12]): 20; Nutsedge, Yellow plant response rating (nutsedge, yellow; [13]): 25; Plant response rating, Nutsedge, Yellow (nutsedge, yellow; [14]): 40; Nutsedge, Yellow plant response rating (nutsedge, yellow; [15]): 60; Pigweed plant response rating (pigweed; [12]): 100; Pigweed plant response rating (pigweed; [13]): 100; Plant response rating, Pigweed (pigweed; [14]): 100; Pigweed plant response rating (pigweed; [15]): 100
CCc1cc(C(=O)NC2CC2)nn1Cc1cc(C(F)(F)C(F)(F)F)nn1C [Compound 226] | 80 | 100 | 100 | 100 | 60 | 40 | 30 | 50 | 90 | 90 | 50 | 90 | 90 | 50 | 100 | 100 | 100 | 85 | 100 | 100 | Barnyardgrass plant response rating (barnyardgrass [4]; [16]): 60; Foxtail, Giant plant response rating (foxtail, giant [5]; [16]): 80; Plant response rating, Crabgrass, Large (crabgrass, large; [17]): 80; Plant response rating, Morningglory (morningglory; [17]): 85; Plant response rating, Nutsedge, Yellow (nutsedge, yellow; [17]): 0; Nutsedge, Yellow plant response rating (nutsedge, yellow; [13]): 5; Plant response rating, Nutsedge, Yellow (nutsedge, yellow; [14]): 5; Nutsedge, Yellow plant response rating (nutsedge, yellow; [15]): 20; Plant response rating, Pigweed (pigweed; [17]): 100; Pigweed plant response rating (pigweed; [13]): 100; Plant response rating, Pigweed (pigweed; [14]): 100; Pigweed plant response rating (pigweed; [15]): 100
